Test results as given in patent US11248022B2, “Glypican-3 peptide reagents and methods” (THE REGENTS OF THE UNIVERSITY OF MICHIGAN, priority 2017, dated 2022).
Where two headings read alike, the source gives them in different places. Ends that are not written are not given here.

How the values were obtained:
SK-Hep1 xenograft tumors = assay: Immunostaining on GPC3 negative SK-Hep1 xenograft sections; parameters: species or system mice; settings: no GPC3 expression
Description: FIGS. 18A-D show immunostaining on GPC3 negative HCC xenograft tumor.
(§1) The specimens were also sectioned for collection of confocal images to perform microscopic validation of peptide binding ex vivo.

HepG2 human HCC cells = assay: Confocal microscopy of peptide binding to HepG2 cells; assay type: cell-based
Description: (§2) FIGS. 6-2A-Q show validation of specific peptide binding to cells in vitro. […] The Hep3B versus SK-Hep1 difference was also larger for antibody than QLE (P=2.3×10^−8, 6.0-fold larger). Intensity was measured with 6 replicates per condition and fitted to an ANOVA model with terms for 9 means to log-transformed data. […] We further validated specific peptide binding to GPC3 using siRNA knockdown. […] Q) Quantified fluorescence intensities. The siCL vs siGPC3 difference was 7.4 times bigger for ALL than the same difference for QLE (P=7.8×10^−5), and the difference for antibody was 8.9 times bigger than for QLE (P=2.5×10^−5), by ANOVA on log-transformed data. Results are an average of 6 images collected independently.
On confocal microscopy, it was shown that ALL*-Cy5.5 binds to the surface (arrows) of cells with different levels of GPC3 expression. […] GPC3 is highly overexpressed in Hep3B cell cytosol and membrane while moderately expressed in HepG2 cells. No GPC3 expression is observed in SK-Hep1 cells. Tubulin serves as loading control for either cytosol or membrane fractions loaded.

GPC3 = molecular target: T1, GPC3 (Homo sapiens, UniProt P51654); assay: siRNA knockdown of GPC3 in Hep3B cells, confocal fluorescence; assay type: cell-based
T1 construct: endogenous in cells; host or cells: Hep3B human HCC cells (siCL control vs siGPC3 knockdown); also HepG2; SK-Hep1 as GPC3-negative control
T1 sequence (P51654 25-554): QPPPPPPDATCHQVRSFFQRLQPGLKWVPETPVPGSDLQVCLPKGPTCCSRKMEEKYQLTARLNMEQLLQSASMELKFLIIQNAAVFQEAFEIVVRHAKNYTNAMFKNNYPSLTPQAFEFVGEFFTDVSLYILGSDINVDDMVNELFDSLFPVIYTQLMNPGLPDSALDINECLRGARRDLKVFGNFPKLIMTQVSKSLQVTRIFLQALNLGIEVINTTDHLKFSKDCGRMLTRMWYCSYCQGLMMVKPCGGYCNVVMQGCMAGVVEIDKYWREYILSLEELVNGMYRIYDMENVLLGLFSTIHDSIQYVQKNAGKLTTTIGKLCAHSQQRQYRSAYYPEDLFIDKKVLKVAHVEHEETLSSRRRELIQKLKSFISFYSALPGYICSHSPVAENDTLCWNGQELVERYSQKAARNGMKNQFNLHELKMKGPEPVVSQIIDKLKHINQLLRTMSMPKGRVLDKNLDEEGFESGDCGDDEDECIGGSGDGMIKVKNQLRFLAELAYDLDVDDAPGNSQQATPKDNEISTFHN
Description: as §2
The specificity of lead candidate peptide reagent binding was validated by siRNA knockdown of GPC3 in human HCC cells. The cells were transfected with siRNA to knockdown cell surface expression of GPC3. […] These cells were transfected with non-targeting siRNA (siCL) for use as control. […] FIG. 6-1D,E show ˜4-fold reduction in fluorescence intensity with both the peptide reagent and anti-GPC3 antibody, respectively, for Hep3B cells transfected with siRNA (siGPC3) to knock down GPC3 expression. […] FIG. 6-2M, N, O and P show the same result as original FIG. 6-1A, B, D and E.

Hep3B cells = assay: Apparent association time constant on Hep3B cells by flow cytometry; assay type: binding, human
Description: The apparent association time constant (k) was also measured for the optimized GPC3 peptide to provide an assessment of how rapidly the peptide binds. The ALL*-Cy5.5 peptide reagent was incubated with Hep3B cells over time intervals ranging from 0 to 40 min. Fluorescence intensities were measured on flow cytometry. The median fluorescence intensity (y) was ratioed with that of Hep3B cells without addition of peptide reagent at different time points (t).

Hep3B xenograft tumors = assay: Ex vivo confocal validation on Hep3B xenograft sections and normal liver; parameters: species or system mice
Description: as §1

[1] = system: HCC xenograft tumor overexpressing GPC3; assay: In vivo handheld dual axes confocal endomicroscope imaging; parameters: species or system mice
Description: GPC3 expression from human HCC xenograft tumors was evaluated in real time by collecting optical sections in vivo using a handheld 5.5 mm diameter dual axes confocal endomicroscope. A solid-state diode laser (300 mW, CNI Laser Inc.) provided illumination at λex=671 nm. A parabolic mirror focused the illumination and collection beams to overlap below the tissue surface with lateral and axial resolution of 2 and 5 μm, respectively. A compact, 3D monolithic scanner located in the distal tip provided large vertical displacements and wide angular deflections to produce images in the vertical (XZ) and horizontal (XY) planes with a FOV of 1000×430 and 1000×1000 μm^2, respectively. NIR fluorescence is collected and passes through a band pass filter (FF01-716/40-25, Semrock) that transmits from 696-736 nm with >93% efficiency for detection with a photomultiplier tube (PMT, H7422PA-40, Hamamatsu) detector. The peptides were injected via the tail vain, and dissected away the skin overlying the tumor to gain access. The distal tip of the endomicroscope was placed in contact with the tumor using a drop of saline to couple the light. Laser power <2 mW on the tissue was used to avoid photobleaching. NIR fluorescence images were collected at 5 frames per sec. 3D volumetric images were reconstructed from a series of images collected in the vertical plane using Amira software (ver 5.4.3, FEI Corporation).
The probe was small enough to be comfortably held in the surgeon's hand during surgery, FIG. 12A, for in vivo imaging of biomarker expression. Its diameter was 5.5 mm and delivered 671 nm near-infrared laser at 2 mW. Mouse carrying HCC xenograft tumor overexpressing GPC3 was first injected with 250 μL 300 μM ALL*-Cy5.5 peptide intravenously and after 2 hours the probe was held in contact with exposed subcutaneous tumor to acquire in vivo peptide binding images, FIG. 12B. Images were collected in either the vertical or horizontal plane with 430 μm depth or 1000×1000 μm^2 area, respectively, at 5 frames per second. With measured lateral resolution of 2.49 μm and axial resolution of 4.98 μm, each peptide stained cell can be clearly seen (arrows). […] Strong uptake (arrows) of ALL*-Cy5.5 in tumor was captured on optical sections collected in the horizontal (1000×1000 μm^2, Video 1) FIG. 12C and vertical (1000×430 μm^2, Video 2) FIG. 12D planes, respectively. A series of vertical cross-section images were reconstructed into 3D MIP volume (Video 3), FIG. 12E.

Sequence: ALLANHEELFQT (SEQ ID NO: 1) peptide labeled with Cy5.5 via a GGGSK linker on the C-terminus (ALLANHEELFQTGGGSK-{Cy5.5}) [ALL*-Cy5.5]
- staining of xenograft sections (SK-Hep1 xenograft tumors): No staining
- intensity difference HepG2 versus SK-Hep1 relative to the same difference for QLE* (HepG2 human HCC cells; 6 replicates, log-transformed data): 3.3 fold
- fluorescence intensity from binding to cell surface (HepG2 human HCC cells; HepG2 cells, confocal microscopy): strong fluorescence intensity
- siCL vs siGPC3 difference relative to the same difference for QLE (GPC3; ANOVA on log-transformed data): 7.4 times
- fluorescence intensity remaining (% of siCL control) (GPC3; GPC3 knockdown cells): 27%
- binding to cell surface (GPC3; Hep3B cells transfected with non-targeting siRNA (siCL)): strong binding
- reduction in fluorescence intensity (GPC3; Hep3B cells transfected with siGPC3 vs siCL): ~4 fold
- fluorescence intensity (GPC3; siCL treated Hep3B control cells): 54.3±6.0
- fluorescence intensity (GPC3; siGPC3 knockdown Hep3B cells): 14.7±1.5
- apparent association time constant k (Hep3B cells): 0.11 min⁻¹
- onset of binding (Hep3B cells): 9.1 min
- apparent association time constant k (Hep3B cells; FIG. 8B legend): 0.11 min⁻¹
- cell surface staining of xenograft sections (Hep3B xenograft tumors; Hep3B xenograft sections, compared with QLE*-Cy5.5): increased cell surface staining
- intensity from peptide binding, HCC vs normal (Hep3B xenograft tumors; n=26): 2.22 fold
- staining of normal mouse liver (Hep3B xenograft tumors; normal mouse liver sections): Minimal staining
- fluorescent signal relative to QLE*-Cy5.5 ([1]; 2 hours after i.v. injection): 2.9 fold
- fluorescent intensity at tumor ([1]; 2 hours after i.v. injection, n=8): 47±13
- uptake/staining in tumor on optical sections ([1]; horizontal and vertical planes): Strong uptake
